Experimental findings from ChEMBL document CHEMBL5506022, “Discovery of Novel Dual Inhibitors Targeting Mutant IDH1 and NAMPT for the Treatment of Glioma with IDH1Mutation” (J Med Chem, 2024) are described below.

The structures appear in SMILES notation. Calls of active or inactive are those of the source. The rule behind the calls is not given here.

For assay [1], the system named is U-87 MG. The format is functional, organism-based. Particulars: Homo sapiens; U-87MG ATCC; dose 300.0 mg/kg, route po, time 35.0 day.
Assay [2] concerns U-87 MG. The assay can be described thus: Antiproliferative activity against human U-87 MG cells harboring wildtype IDH1 assessed as inhibition of cell growth incubated for 24 hrs by CCK8 assay. The format is functional, cell-based, U-87MG ATCC.
Assay [3] concerns U-87MG ATCC. The assay can be described thus: Effect on intracellular NADP+ level in human U-87 MG cells harboring wildtype IDH1. The format is functional, cell-based.
In assay [4] the test system is U-87 MG. The assay is described as follows: cells. Conditions: Homo sapiens, 48 h, read-out: Activity.
Assay [5] relates to U-87MG ATCC. The class given is functional, cell-based. Particulars: Homo sapiens, dose 0.5 µM, time 48.0 hrs.
The test system of assay [6] is U-87 MG. The format is functional, cell-based, U-87MG ATCC. Particulars: Homo sapiens, 48 h.
In assay [7] the test system is U-87 MG. The class given is functional, cell-based, U-87MG ATCC. Particulars: Homo sapiens, 72 h.
The subject of assay [8] is U-87 MG. The format is functional, cell-based, U-87MG ATCC. Conditions: Homo sapiens, 24 h.
Assay [9] has as its system U-87 MG. The class given is functional, Homo sapiens, U-87MG ATCC. Conditions: dose 300 mg/kg; route po; time 35 day.
Assay [10] deals with U-87 MG. The assay can be described thus: Synergistic antiproliferative activity against human U-87 MG cells harboring wildtype IDH1 assessed as combination index incubated for 48 hrs in presence of FK866 by CCK8 assay. The format is functional, U-87MG ATCC.
The test system of assay [11] is U-87 MG. The format is functional, Homo sapiens, U-87MG ATCC. Conditions: dose 300 mg/kg; route po; time 35 day. The source holds these as a separate data set.
For assay [12], the system named is U-87 MG. The assay is described as follows: Antiproliferative activity against human U-87 MG cells harboring wildtype IDH1 assessed as inhibition of cell growth incubated for 48 hrs by CCK8 assay. The class given is functional, cell-based, U-87MG ATCC.
The test system of assay [13] is U-87 MG. The assay can be described thus: Synergistic antiproliferative activity against human U-87 MG cells harboring wildtype IDH1 assessed as inhibition of cell growth incubated for 48 hrs in presence of FK866 by CCK8 assay. The class given is functional, cell-based, U-87MG ATCC.
The subject of assay [14] is U-87 MG. The assay is described as follows: Antiproliferative activity against human U-87 MG cells harboring wildtype IDH1 assessed as inhibition of cell growth incubated for 72 hrs by CCK8 assay. The format is functional, cell-based, U-87MG ATCC.
The test system of assay [15] is U-87 MG. The format is functional, Homo sapiens, U-87MG ATCC. Conditions: time 48 hrs.
Assay [16] concerns U-87 MG. The format is functional, cell-based, U-87MG ATCC. Conditions: Homo sapiens, 48 h. This is another data set of the same source.
Assay [17] concerns U-87 MG. The class given is functional, U-87MG ATCC. Conditions: Homo sapiens, time 48 hrs, read-out: Activity.
Assay [18] concerns U-87 MG. The class given is functional, Homo sapiens, U-87MG ATCC. Conditions: dose 1 µM; time 48 hrs.
The test system of assay [19] is U-87 MG. The class given is functional, Homo sapiens, U-87MG ATCC. Conditions: time 48 hrs. This is another data set of the same source.
Assay [20] deals with U-87 MG. The class given is functional, Homo sapiens, U-87MG ATCC. Conditions: dose 1 µM; time 48 hrs. This is another data set of the same source.
Assay [21] has as its system U-87 MG. The class given is functional, Homo sapiens, U-87MG ATCC. Particulars: dose 1 µM; time 48 hrs. The source holds these as a separate data set.

For the compound `Cc1cc([C@H](C)Nc2nccc(N3C(=O)OC[C@@H]3[C@H](C)F)n2)ncc1-c1ccnc(C(F)(F)F)c1`, the result in [1] was Active. Besides, the IC50 in assay [2] is 20100 nM; in assay [6], 440 nM; in assay [7] it was 360 nM; in assay [8] it was 1040 nM; in assay [12], 7570 nM; in assay [13] it was 1690 nM. Moreover, the concentration for half-maximal inhibition (IC50) in assay [14] turned out to be 3540 nM; in assay [16] it was 450 nM. For the same compound, the result in [3] and in assay [5] was inactive. Also, the viability at 1 µM in assay [4] is 34.7%. Moreover, the MST in assay [9] was 26.5 days; in [11], 23.5 days. The CI in assay [10] was 0.83; in assay [15], 0.91.
Turning to `N#Cc1ccnc(N2C(=O)CC[C@H]2C(=O)N(c2cncc(F)c2)[C@H](C(=O)NC2CC(F)(F)C2)c2ccccc2Cl)c1` [IVOSIDENIB], the half-inhibitory concentration (IC50) in [2] was 100000 nM; in assay [6], 1020 nM; in assay [7] it was 980 nM; in assay [8], 3060 nM; in assay [12], 89300 nM; in [13] it was 2510 nM. Besides, the 50% inhibitory concentration (IC50) in [14] came out at 67200 nM; in [16] it was 560 nM. The viability at 1 µM in assay [4] came out at 37.8%; in [17], 27.8%. Besides, the Activity is on record as 49.6% in [18], 4.59% in assay [20] and 18% in assay [21]. Further, the CI in assay [19] stood at 0.88; in [10] it was 0.78; in assay [15], 0.88.
